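Protocol summary: plate cells (96-well), add compound at 5 concentrations, incubate 48 h, interpolate endpoints linearly. TGI is the concentration that stops growth completely.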
Assays:
Test in all cases: inhibition of tumour cell growth, NCI panel, 48 h
LOX IMVI melanoma = tested on: LOX IMVI melanoma
NCI-H522 lung = tested on: NCI-H522 lung
BT-549 breast = tested on: BT-549 breast
OVCAR-5 ovarian = tested on: OVCAR-5 ovarian
MDA-N = tested on: MDA-N
SF-295 CNS = tested on: SF-295 CNS
HS 578T breast = tested on: HS 578T breast
A549 NSCLC = tested on: A549 NSCLC
MDA-MB-231 breast = tested on: MDA-MB-231 breast
SNB-19 CNS = tested on: SNB-19 CNS
HCT-15 colon = tested on: HCT-15 colon
CCRF-CEM leukemia = tested on: CCRF-CEM leukemia
OVCAR-3 ovarian = tested on: OVCAR-3 ovarian
ACHN renal = tested on: ACHN renal
SW-620 colon = tested on: SW-620 colon
786-0 renal = tested on: 786-0 renal
EKVX NSCLC = tested on: EKVX NSCLC
SK-MEL-2 melanoma = tested on: SK-MEL-2 melanoma
KM12 colon = tested on: KM12 colon
OVCAR-8 ovarian = tested on: OVCAR-8 ovarian
MCF7 breast = tested on: MCF7 breast
MALME-3M melanoma = tested on: MALME-3M melanoma
HCT-116 colon = tested on: HCT-116 colon
RPMI-8226 leukemia = tested on: RPMI-8226 leukemia
MOLT-4 leukemia = tested on: MOLT-4 leukemia
RXF 393 renal = tested on: RXF 393 renal
K-562 leukemia = tested on: K-562 leukemia
NCI-H23 lung = tested on: NCI-H23 lung
SK-MEL-28 melanoma = tested on: SK-MEL-28 melanoma
A498 renal = tested on: A498 renal
PC-3 prostate = tested on: PC-3 prostate
NCI-H226 lung = tested on: NCI-H226 lung
DU-145 prostate = tested on: DU-145 prostate
UACC-62 melanoma = tested on: UACC-62 melanoma
TK-10 renal = tested on: TK-10 renal
M14 melanoma = tested on: M14 melanoma
SR leukemia = tested on: SR leukemia
IGROV1 ovarian = tested on: IGROV1 ovarian
SF-268 CNS = tested on: SF-268 CNS
SN12C renal = tested on: SN12C renal
NCI-H460 lung = tested on: NCI-H460 lung
COLO 205 colon = tested on: COLO 205 colon
T-47D breast = tested on: T-47D breast
SK-OV-3 ovarian = tested on: SK-OV-3 ovarian
HOP-62 NSCLC = tested on: HOP-62 NSCLC
NCI/ADR-RES ovarian = tested on: NCI/ADR-RES ovarian
U251 CNS = tested on: U251 CNS
HCC-2998 colon = tested on: HCC-2998 colon
SNB-75 CNS = tested on: SNB-75 CNS
HT29 colon = tested on: HT29 colon
MDA-MB-435 = tested on: MDA-MB-435
OVCAR-4 ovarian = tested on: OVCAR-4 ovarian
CAKI-1 renal = tested on: CAKI-1 renal
HOP-92 NSCLC = tested on: HOP-92 NSCLC
UACC-257 melanoma = tested on: UACC-257 melanoma
UO-31 renal = tested on: UO-31 renal
SK-MEL-5 melanoma = tested on: SK-MEL-5 melanoma
SF-539 CNS = tested on: SF-539 CNS

Structure (SMILES): O=C1C(c2c(O)[nH]c3ccc([N+](=O)[O-])cc23)=Nc2ccccc21
- TGI (LOX IMVI melanoma): > 100 µM
- TGI (NCI-H522 lung): > 100 µM
- TGI (BT-549 breast): > 100 µM
- TGI (OVCAR-5 ovarian): > 100 µM
- TGI (MDA-N): > 100 µM
- TGI (SF-295 CNS): > 100 µM
- TGI (HS 578T breast): > 100 µM
- TGI (A549 NSCLC): > 100 µM
- TGI (MDA-MB-231 breast): 91.2 µM
- TGI (SNB-19 CNS): > 100 µM
- TGI (HCT-15 colon): > 100 µM
- TGI (CCRF-CEM leukemia): > 100 µM
- TGI (OVCAR-3 ovarian): > 100 µM
- TGI (ACHN renal): > 100 µM
- TGI (SW-620 colon): > 100 µM
- TGI (786-0 renal): > 100 µM
- TGI (EKVX NSCLC): > 100 µM
- TGI (SK-MEL-2 melanoma): > 100 µM
- TGI (KM12 colon): > 100 µM
- TGI (OVCAR-8 ovarian): > 100 µM
- TGI (MCF7 breast): > 100 µM
- TGI (MALME-3M melanoma): > 100 µM
- TGI (HCT-116 colon): > 100 µM
- TGI (RPMI-8226 leukemia): > 100 µM
- TGI (MOLT-4 leukemia): > 100 µM
- TGI (RXF 393 renal): 42.2 µM
- TGI (K-562 leukemia): > 100 µM
- TGI (NCI-H23 lung): > 100 µM
- TGI (SK-MEL-28 melanoma): > 100 µM
- TGI (A498 renal): > 100 µM
- TGI (PC-3 prostate): > 100 µM
- TGI (NCI-H226 lung): > 100 µM
- TGI (DU-145 prostate): > 100 µM
- TGI (UACC-62 melanoma): > 100 µM
- TGI (TK-10 renal): 70.9 µM
- TGI (M14 melanoma): > 100 µM
- TGI (SR leukemia): > 100 µM
- TGI (IGROV1 ovarian): > 100 µM
- TGI (SF-268 CNS): > 100 µM
- TGI (SN12C renal): > 100 µM
- TGI (NCI-H460 lung): > 100 µM
- TGI (COLO 205 colon): > 100 µM
- TGI (T-47D breast): > 100 µM
- TGI (SK-OV-3 ovarian): > 100 µM
- TGI (HOP-62 NSCLC): > 100 µM
- TGI (NCI/ADR-RES ovarian): > 100 µM
- TGI (U251 CNS): 49.8 µM
- TGI (HCC-2998 colon): > 100 µM
- TGI (SNB-75 CNS): 34.2 µM
- TGI (HT29 colon): > 100 µM
- TGI (MDA-MB-435): > 100 µM
- TGI (OVCAR-4 ovarian): > 100 µM
- TGI (CAKI-1 renal): > 100 µM
- TGI (HOP-92 NSCLC): > 100 µM
- TGI (UACC-257 melanoma): > 100 µM
- TGI (UO-31 renal): > 100 µM
- TGI (SK-MEL-5 melanoma): > 100 µM

Structure (SMILES): C/C(=C\COc1cc(O)c2c(c1)C(=O)c1cc(C)cc(O)c1C2=O)CCC1OC1(C)C (stereo not drawn)
- TGI (LOX IMVI melanoma): > 100 µM
- TGI (NCI-H522 lung): > 100 µM
- TGI (BT-549 breast): > 100 µM
- TGI (OVCAR-5 ovarian): > 100 µM
- TGI (MDA-N): > 100 µM
- TGI (SF-295 CNS): > 100 µM
- TGI (HS 578T breast): > 100 µM
- TGI (A549 NSCLC): > 100 µM
- TGI (MDA-MB-231 breast): > 100 µM
- TGI (SF-539 CNS): > 100 µM
- TGI (SNB-19 CNS): > 100 µM
- TGI (HCT-15 colon): > 100 µM
- TGI (CCRF-CEM leukemia): > 100 µM
- TGI (OVCAR-3 ovarian): > 100 µM
- TGI (ACHN renal): > 100 µM
- TGI (786-0 renal): > 100 µM
- TGI (EKVX NSCLC): > 100 µM
- TGI (SK-MEL-2 melanoma): > 100 µM
- TGI (KM12 colon): > 100 µM
- TGI (OVCAR-8 ovarian): > 100 µM
- TGI (MCF7 breast): > 100 µM
- TGI (MALME-3M melanoma): > 100 µM
- TGI (HCT-116 colon): > 100 µM
- TGI (RPMI-8226 leukemia): > 100 µM
- TGI (MOLT-4 leukemia): > 100 µM
- TGI (RXF 393 renal): 70.8 µM
- TGI (K-562 leukemia): > 100 µM
- TGI (NCI-H23 lung): > 100 µM
- TGI (SK-MEL-28 melanoma): > 100 µM
- TGI (A498 renal): > 100 µM
- TGI (PC-3 prostate): > 100 µM
- TGI (DU-145 prostate): > 100 µM
- TGI (UACC-62 melanoma): > 100 µM
- TGI (TK-10 renal): > 100 µM
- TGI (M14 melanoma): > 100 µM
- TGI (SR leukemia): > 100 µM
- TGI (IGROV1 ovarian): > 100 µM
- TGI (SF-268 CNS): > 100 µM
- TGI (SN12C renal): > 100 µM
- TGI (NCI-H460 lung): > 100 µM
- TGI (COLO 205 colon): > 100 µM
- TGI (T-47D breast): > 100 µM
- TGI (SK-OV-3 ovarian): > 100 µM
- TGI (HOP-62 NSCLC): > 100 µM
- TGI (NCI/ADR-RES ovarian): > 100 µM
- TGI (U251 CNS): > 100 µM
- TGI (HCC-2998 colon): > 100 µM
- TGI (SNB-75 CNS): > 100 µM
- TGI (HT29 colon): > 100 µM
- TGI (MDA-MB-435): > 100 µM
- TGI (OVCAR-4 ovarian): > 100 µM
- TGI (CAKI-1 renal): 96.5 µM
- TGI (HOP-92 NSCLC): > 100 µM
- TGI (UACC-257 melanoma): > 100 µM
- TGI (UO-31 renal): > 100 µM
- TGI (SK-MEL-5 melanoma): > 100 µM

Structure (SMILES): ClC(Cl)(Cl)C(N1CCN(c2ccccc2)CC1)N1CCN(c2ccccc2)CC1
- TGI (LOX IMVI melanoma): > 100 µM
- TGI (NCI-H522 lung): > 100 µM
- TGI (BT-549 breast): > 100 µM
- TGI (OVCAR-5 ovarian): > 100 µM
- TGI (MDA-N): > 100 µM
- TGI (HS 578T breast): > 100 µM
- TGI (A549 NSCLC): > 100 µM
- TGI (MDA-MB-231 breast): > 100 µM
- TGI (SNB-19 CNS): > 100 µM
- TGI (HCT-15 colon): > 100 µM
- TGI (ACHN renal): > 100 µM
- TGI (786-0 renal): > 100 µM
- TGI (EKVX NSCLC): > 100 µM
- TGI (SK-MEL-2 melanoma): > 100 µM
- TGI (KM12 colon): > 100 µM
- TGI (OVCAR-8 ovarian): > 100 µM
- TGI (MCF7 breast): > 100 µM
- TGI (MALME-3M melanoma): > 100 µM
- TGI (HCT-116 colon): > 100 µM
- TGI (RPMI-8226 leukemia): > 100 µM
- TGI (MOLT-4 leukemia): > 100 µM
- TGI (RXF 393 renal): > 100 µM
- TGI (K-562 leukemia): > 100 µM
- TGI (SK-MEL-28 melanoma): > 100 µM
- TGI (A498 renal): > 100 µM
- TGI (PC-3 prostate): > 100 µM
- TGI (NCI-H226 lung): > 100 µM
- TGI (DU-145 prostate): > 100 µM
- TGI (UACC-62 melanoma): > 100 µM
- TGI (TK-10 renal): > 100 µM
- TGI (M14 melanoma): > 100 µM
- TGI (SR leukemia): > 100 µM
- TGI (IGROV1 ovarian): > 100 µM
- TGI (SF-268 CNS): > 100 µM
- TGI (SN12C renal): > 100 µM
- TGI (NCI-H460 lung): > 100 µM
- TGI (COLO 205 colon): > 100 µM
- TGI (T-47D breast): > 100 µM
- TGI (HOP-62 NSCLC): > 100 µM
- TGI (NCI/ADR-RES ovarian): > 100 µM
- TGI (U251 CNS): > 100 µM
- TGI (SNB-75 CNS): > 100 µM
- TGI (HT29 colon): > 100 µM
- TGI (MDA-MB-435): > 100 µM
- TGI (OVCAR-4 ovarian): > 100 µM
- TGI (CAKI-1 renal): > 100 µM
- TGI (HOP-92 NSCLC): > 100 µM
- TGI (UACC-257 melanoma): > 100 µM
- TGI (UO-31 renal): > 100 µM
- TGI (SK-MEL-5 melanoma): > 100 µM

Reference: PubChem BioAssay (NCI)
